Results from ChEMBL document CHEMBL1909046, “DrugMatrix in vitro pharmacology data”.

Legend:
[1] = target: Vascular endothelial growth factor receptor 1 (Homo sapiens, UniProt P17948); experiment: biochemical; type: cell-based, HUVEC; also: in other assays of this panel Not Active means under 50% inhibition at 10 µM
[2] = target: Protein kinase C alpha type (Homo sapiens, UniProt P17252); type: cell-based; settings: sf9;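 also: inhibition of PKCalpha kinase activity measured in an enzyme assay with histone as the phosphorylation substrate; in other assays of this panel Not Active means under 50% inhibition at 10 µM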
Melanocortin receptor 4 = Melanocortin receptor 4 (Homo sapiens, UniProt P32245); type: cell membranes, HEK293, Membrane; settings: hek293; also: in other assays of this panel Not Active means under 50% inhibition at 10 µM
[3] = target: Beta-1 adrenergic receptor (Homo sapiens, UniProt P08588); experiment: DRUGMATRIX: Adrenergic beta1 radioligand binding (ligand: [125I] Cyanopindolol); type: cell membranes, CHO-K1, Membrane; settings: Not Active = under 50% inhibition at 10 µM; for Ki: read-out: Ki
Adenosine receptor A3 = target: T1, Adenosine receptor A3 (Homo sapiens, UniProt P0DMS8); type: cell membranes, CHO-K1, Membrane; settings: for Ki: read-out: Ki;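 as to all read-outs here: radioligand binding assay with AB-MECA serving as the labeled ligand; in other assays of this panel Not Active means under 50% inhibition at 10 µM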
T1 sequence (P0DMS8 whole entry): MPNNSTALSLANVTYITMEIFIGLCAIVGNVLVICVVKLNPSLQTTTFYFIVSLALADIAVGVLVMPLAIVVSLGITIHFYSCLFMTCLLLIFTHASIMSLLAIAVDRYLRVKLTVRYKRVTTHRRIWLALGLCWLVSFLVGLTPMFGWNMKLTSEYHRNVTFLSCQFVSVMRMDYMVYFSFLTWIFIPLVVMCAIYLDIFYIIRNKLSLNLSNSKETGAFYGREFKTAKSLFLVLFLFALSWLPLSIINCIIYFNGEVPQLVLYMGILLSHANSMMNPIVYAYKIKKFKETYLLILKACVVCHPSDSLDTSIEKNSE

Chain of Vascular endothelial growth factor receptor 1 (P17948 whole entry): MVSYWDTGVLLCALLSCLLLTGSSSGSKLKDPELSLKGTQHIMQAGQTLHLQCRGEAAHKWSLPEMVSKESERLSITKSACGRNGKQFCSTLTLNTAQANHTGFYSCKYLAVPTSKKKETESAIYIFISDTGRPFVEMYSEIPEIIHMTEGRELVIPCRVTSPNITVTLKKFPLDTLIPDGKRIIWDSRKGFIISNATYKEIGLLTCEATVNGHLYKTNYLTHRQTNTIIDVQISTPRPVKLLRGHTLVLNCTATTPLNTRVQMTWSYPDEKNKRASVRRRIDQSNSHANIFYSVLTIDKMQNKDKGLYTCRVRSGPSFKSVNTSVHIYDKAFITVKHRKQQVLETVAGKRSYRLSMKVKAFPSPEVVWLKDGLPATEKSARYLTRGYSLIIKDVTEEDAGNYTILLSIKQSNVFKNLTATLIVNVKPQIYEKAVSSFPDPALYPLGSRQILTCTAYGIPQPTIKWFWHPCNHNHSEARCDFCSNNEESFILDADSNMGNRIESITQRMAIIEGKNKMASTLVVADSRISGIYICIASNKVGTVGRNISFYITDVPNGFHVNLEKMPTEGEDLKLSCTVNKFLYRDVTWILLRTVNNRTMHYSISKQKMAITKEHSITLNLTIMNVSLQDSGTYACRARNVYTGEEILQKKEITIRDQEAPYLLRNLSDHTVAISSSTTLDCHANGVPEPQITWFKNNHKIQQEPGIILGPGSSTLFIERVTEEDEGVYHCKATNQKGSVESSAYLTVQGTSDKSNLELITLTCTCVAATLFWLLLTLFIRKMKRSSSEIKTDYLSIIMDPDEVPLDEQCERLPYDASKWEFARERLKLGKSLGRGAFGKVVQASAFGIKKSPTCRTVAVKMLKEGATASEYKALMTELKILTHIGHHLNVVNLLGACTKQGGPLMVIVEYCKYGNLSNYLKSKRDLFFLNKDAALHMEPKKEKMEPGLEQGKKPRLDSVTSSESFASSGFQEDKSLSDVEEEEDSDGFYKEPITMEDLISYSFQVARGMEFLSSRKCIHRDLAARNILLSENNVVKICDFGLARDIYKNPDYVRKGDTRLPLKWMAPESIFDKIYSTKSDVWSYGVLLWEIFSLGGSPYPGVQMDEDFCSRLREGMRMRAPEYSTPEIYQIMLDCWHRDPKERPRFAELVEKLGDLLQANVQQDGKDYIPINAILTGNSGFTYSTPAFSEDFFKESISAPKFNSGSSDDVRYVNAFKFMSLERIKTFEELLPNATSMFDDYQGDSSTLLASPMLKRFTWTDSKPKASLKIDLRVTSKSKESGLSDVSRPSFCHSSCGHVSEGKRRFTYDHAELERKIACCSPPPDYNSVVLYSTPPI
Chain of Melanocortin receptor 4 (P32245 whole entry): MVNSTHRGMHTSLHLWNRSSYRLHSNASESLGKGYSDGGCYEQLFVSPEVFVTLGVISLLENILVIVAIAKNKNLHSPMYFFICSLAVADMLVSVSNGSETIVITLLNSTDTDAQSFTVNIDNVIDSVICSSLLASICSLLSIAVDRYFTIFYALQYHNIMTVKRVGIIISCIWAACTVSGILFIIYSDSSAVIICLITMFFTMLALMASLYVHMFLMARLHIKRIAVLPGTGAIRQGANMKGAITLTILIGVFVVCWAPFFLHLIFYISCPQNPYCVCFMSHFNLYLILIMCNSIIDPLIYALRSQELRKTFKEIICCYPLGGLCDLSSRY
Chain of Beta-1 adrenergic receptor (P08588 whole entry): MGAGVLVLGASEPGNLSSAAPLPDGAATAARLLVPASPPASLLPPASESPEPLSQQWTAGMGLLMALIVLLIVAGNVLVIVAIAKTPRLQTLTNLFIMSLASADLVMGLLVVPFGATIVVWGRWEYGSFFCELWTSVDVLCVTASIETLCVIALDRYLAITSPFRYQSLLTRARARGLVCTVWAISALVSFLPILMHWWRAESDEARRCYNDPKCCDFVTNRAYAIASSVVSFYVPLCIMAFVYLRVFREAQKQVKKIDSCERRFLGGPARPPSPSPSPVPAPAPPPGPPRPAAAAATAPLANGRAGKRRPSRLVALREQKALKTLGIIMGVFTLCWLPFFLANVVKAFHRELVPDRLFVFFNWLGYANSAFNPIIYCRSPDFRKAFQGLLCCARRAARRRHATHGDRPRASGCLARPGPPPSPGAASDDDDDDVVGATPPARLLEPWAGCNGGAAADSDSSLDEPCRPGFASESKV

| SMILES | IC50 ([1]; huvec) | IC50 [2] | IC50 (Melanocortin receptor 4) | IC50 ([3]; cho-k1) | IC50 (Adenosine receptor A3; cho-k1) | IC50 ([3]; read-out: IC50) [µM] | Ki [3] [µM] | IC50 ([1]; read-out: IC50) [µM] | Ki ([1]; read-out: Ki) [µM] | IC50 (Adenosine receptor A3; read-out: IC50) [µM] | Ki (Adenosine receptor A3) [µM] |
| --- | --- | --- | --- | --- | --- | --- | --- | --- | --- | --- | --- |
| COc1ccc2cc3[n+](cc2c1OC)CCc1cc2c(cc1-3)OCO2.[Cl-] [BERBERINE CHLORIDE] | Not Active | Not Active | Not Active | Not Active | Not Active |  |  |  |  |  |  |
| O=C(O)CCNC(=O)c1ccccc1 [BETAMIPRON] | Not Active | Not Active | Not Active | Not Active | Not Active |  |  |  |  |  |  |
| CC(=O)Oc1ccc(C(c2ccc(OC(C)=O)cc2)c2ccccn2)cc1 [BISACODYL] | Not Active | Not Active | Not Active | Not Active | Not Active |  |  |  |  |  |  |
| Cc1cc2c(OCC(CNC(C)(C)C)OC(=O)c3ccccc3)cccc2[nH]1 (stereo not given) [BOPINDOLOL] | Not Active | Not Active | Not Active |  | Not Active | 0.047 | 0.027 |  |  |  |  |
| Brc1c(NC2=NCCN2)ccc2nccnc12 [BRIMONIDINE] | Not Active | Not Active | Not Active | Not Active | Not Active |  |  |  |  |  |  |
| CN(C)[C@@H]1C(O)=C(C(N)=O)C(=O)[C@@]2(O)C(O)=C3C(=O)c4c(O)ccc(Cl)c4[C@@](C)(O)[C@H]3C[C@@H]12 [CHLORTETRACYCLINE] | Not Active | Not Active | Not Active | Not Active | Not Active |  |  |  |  |  |  |
| CN/C(=N\CCSCc1nc[nH]c1C)NC#N [CIMETIDINE] | Not Active | Not Active | Not Active | Not Active | Not Active |  |  |  |  |  |  |
| COc1cc(N)c(Cl)cc1C(=O)NC1CCN(CCCOc2ccc(F)cc2)CC1OC (stereo not given) [CISAPRIDE] | Not Active | Not Active | Not Active | Not Active | Not Active |  |  |  |  |  |  |
| CCC(=O)O[C@]1(C(=O)CCl)[C@@H](C)C[C@H]2[C@@H]3CCC4=CC(=O)C=C[C@]4(C)[C@@]3(F)[C@@H](O)C[C@@]21C [CLOBETASOL PROPIONATE] | Not Active | Not Active | Not Active | Not Active | Not Active |  |  |  |  |  |  |
| O=C1CN=C(c2ccccc2Cl)c2cc([N+](=O)[O-])ccc2N1 [CLONAZEPAM] | Not Active | Not Active | Not Active | Not Active | Not Active |  |  |  |  |  |  |
| Nc1ccn([C@@H]2O[C@H](CO)[C@@H](O)[C@@H]2O)c(=O)n1 [CYTARABINE] | Not Active | Not Active | Not Active | Not Active | Not Active |  |  |  |  |  |  |
| C[C@@H]1C[C@H]2[C@@H]3CCC4=CC(=O)C=C[C@]4(C)[C@@]3(F)[C@@H](O)C[C@]2(C)[C@H]1C(=O)CO [DESOXIMETASONE] | Not Active | Not Active | Not Active | Not Active | Not Active |  |  |  |  |  |  |
| C[C@@H]1C[C@H]2[C@@H]3CCC4=CC(=O)C=C[C@]4(C)[C@@]3(F)[C@@H](O)C[C@]2(C)[C@@]1(O)C(=O)CO [DEXAMETHASONE] | Not Active | Not Active | Not Active | Not Active | Not Active |  |  |  |  |  |  |
| CN(C)CC[C@@H](c1ccc(Cl)cc1)c1ccccn1 [DEXCHLORPHENIRAMINE] | Not Active | Not Active | Not Active | Not Active | Not Active |  |  |  |  |  |  |
| C[C@@H]1CC[C@@]2(OC1)O[C@H]1[C@@H](O)[C@H]3[C@@H]4CC[C@H]5C[C@@H](O[C@@H]6O[C@H](CO)[C@H](O[C@@H]7O[C@H](CO)C(O)[C@H](O[C@@H]8OC[C@@H](O)[C@H](O)[C@H]8O)[C@H]7O[C@@H]7O[C@H](CO)[C@H](O)[C@H](O[C@@H]8O[C@H](CO)[C@@H](O)[C@H](O)[C@H]8O)[C@H]7O)[C@H](O)[C@H]6O)[C@H](O)C[C@]5(C)[C@H]4CC[C@]3(C)[C@H]1[C@@H]2C (stereo not given in full) [DIGITONIN] |  | Not Active | Not Active | Not Active | Not Active |  |  | 3.86 | 1 |  |  |
| OC(CCCN1CCCCC1)(c1ccccc1)c1ccccc1 [DIPHENIDOL] | Not Active | Not Active | Not Active | Not Active | Not Active |  |  |  |  |  |  |
| C[C@H]1O[C@@H](n2cc(F)c(=O)[nH]c2=O)[C@H](O)[C@@H]1O [DOXIFLURIDINE] | Not Active | Not Active | Not Active | Not Active | Not Active |  |  |  |  |  |  |
| Cn1c(=O)c2c(ncn2CC(O)CO)n(C)c1=O (stereo not given) [DYPHYLLINE] | Not Active | Not Active | Not Active | Not Active | Not Active |  |  |  |  |  |  |
| CC[C@H]1CN2CCc3cc(OC)c(OC)cc3[C@@H]2C[C@@H]1C[C@H]1NCCc2cc(OC)c(OC)cc21 [EMETINE] | Not Active | Not Active | Not Active | Not Active | Not Active |  |  |  |  |  |  |
| C[C@@H](CO)NC(=O)[C@@H]1C=C2c3cccc4[nH]cc(c34)C[C@H]2N(C)C1 [ERGONOVINE] | Not Active | Not Active | Not Active | Not Active | Not Active |  |  |  |  |  |  |

| SMILES | IC50 ([1]; huvec) | IC50 [2] | IC50 (Melanocortin receptor 4) | IC50 ([3]; cho-k1) | IC50 (Adenosine receptor A3; cho-k1) | IC50 ([3]; read-out: IC50) [µM] | Ki [3] [µM] | IC50 ([1]; read-out: IC50) [µM] | Ki ([1]; read-out: Ki) [µM] | IC50 (Adenosine receptor A3; read-out: IC50) [µM] | Ki (Adenosine receptor A3) [µM] |
| --- | --- | --- | --- | --- | --- | --- | --- | --- | --- | --- | --- |
| COC(=O)CCc1ccc(OCC(O)CNC(C)C)cc1 (stereo not given) [ESMOLOL] | Not Active | Not Active | Not Active |  | Not Active | 0.197 | 0.114 |  |  |  |  |
| CCC1(C)CC(=O)NC1=O (stereo not given) [ETHOSUXIMIDE] | Not Active | Not Active | Not Active | Not Active | Not Active |  |  |  |  |  |  |
| C#C[C@]1(OC(C)=O)CC[C@H]2[C@@H]3CCC4=C[C@@H](OC(C)=O)CC[C@@H]4[C@H]3CC[C@@]21C [ETHYNODIOL DIACETATE] | Not Active | Not Active | Not Active | Not Active | Not Active |  |  |  |  |  |  |
| COc1cc([C@@H]2c3cc4c(cc3[C@@H](O[C@@H]3O[C@@H]5CO[C@@H](C)O[C@H]5[C@H](O)[C@H]3O)[C@H]3COC(=O)[C@H]23)OCO4)cc(OC)c1O [ETOPOSIDE] | Not Active | Not Active | Not Active | Not Active | Not Active |  |  |  |  |  |  |
| C=CCc1ccc(O)c(OC)c1 [EUGENOL] | Not Active | Not Active | Not Active | Not Active | Not Active |  |  |  |  |  |  |
| CC(C(=O)O)c1cccc(Oc2ccccc2)c1 (stereo not given) [FENOPROFEN] | Not Active | Not Active | Not Active | Not Active | Not Active |  |  |  |  |  |  |
| CC(C)(C)NC(=O)[C@H]1CC[C@H]2[C@@H]3CC[C@H]4NC(=O)C=C[C@]4(C)[C@H]3CC[C@]12C [FINASTERIDE] | Not Active | Not Active | Not Active | Not Active | Not Active |  |  |  |  |  |  |
| COc1ccc2c3c1O[C@H]1C[C@@H](O)C=C[C@@]31CCN(C)C2 [GALANTAMINE] | Not Active | Not Active | Not Active | Not Active | Not Active |  |  |  |  |  |  |
| Nc1ccn([C@@H]2O[C@H](CO)[C@@H](O)C2(F)F)c(=O)n1 [GEMCITABINE] | Not Active | Not Active | Not Active | Not Active | Not Active |  |  |  |  |  |  |
| CC(C)=CCC/C(C)=C/CO [GERANIOL] | Not Active | Not Active | Not Active | Not Active | Not Active |  |  |  |  |  |  |
| N=C(N)NC(=O)Cc1c(Cl)cccc1Cl [GUANFACINE] | Not Active | Not Active | Not Active | Not Active | Not Active |  |  |  |  |  |  |
| Oc1c(Cl)cc(Cl)c(Cl)c1Cc1c(O)c(Cl)cc(Cl)c1Cl [HEXACHLOROPHENE] | Not Active | Not Active | Not Active | Not Active |  |  |  |  |  | 0.639 | 0.361 |
| NNc1nncc2ccccc12 [HYDRALAZINE] | Not Active | Not Active | Not Active | Not Active | Not Active |  |  |  |  |  |  |
| CC(=O)[C@@]1(O)CC[C@H]2[C@@H]3CCC4=CC(=O)CC[C@]4(C)[C@H]3CC[C@@]21C [HYDROXYPROGESTERONE] | Not Active | Not Active | Not Active | Not Active |  |  |  |  |  | 4.73 | 2.67 |
| COC1=C(OC)C(=O)C(CCCCCCCCCCO)=C(C)C1=O [IDEBENONE] | Not Active | Not Active | Not Active | Not Active | Not Active |  |  |  |  |  |  |
| CC(C)NNC(=O)c1ccncc1 [IPRONIAZID] | Not Active | Not Active | Not Active | Not Active | Not Active |  |  |  |  |  |  |
| Cc1c(OCC(F)(F)F)ccnc1C[S+]([O-])c1nc2ccccc2[nH]1 (stereo not given) [LANSOPRAZOLE] | Not Active | Not Active | Not Active | Not Active | Not Active |  |  |  |  |  |  |
| O=c1cc(N2CCOCC2)oc2c(-c3ccccc3)cccc12 [LY-294002] | Not Active | Not Active | Not Active | Not Active | Not Active |  |  |  |  |  |  |
| COc1ccc2[nH]cc(CCNC(C)=O)c2c1 [MELATONIN] | Not Active | Not Active | Not Active | Not Active | Not Active |  |  |  |  |  |  |
